Like-named read-outs stand apart in the source and are kept apart here. Starred links: 1 amine or outer side, 2 acyl side, 3 side chain; linkers in the order of their positions; H or OH if unused. Non-standard residues stand in square brackets, D forms with d. Residues, ends and D or L forms follow the SMILES beside them. Groups on a side chain read outwards from the residue. *: point of attachment. C20 diacid = O=C(O)CCCCCCCCCCCCCCCCCCC(=O)*; C18 diacid = O=C(O)CCCCCCCCCCCCCCCCC(=O)*; γGlu = O=C(O)[C@H](CCC(=O)[*:2])N[*:1]; AEEA = NCCOCCOCC(=O)O; Aib = CC(C)(N)C(=O)O
Assays:
CRF1R receptor = target: T1, CRF1R receptor (Homo sapiens, UniProt P34998); assay: cAMP activity at anti-target CRF1R, CRF1R-overexpression CHO cell line (Example 9); assay type: cell-based; conditions: for EC50: 0% HSA
T1 construct: host or cells: CHO-K1 clone 2
T1 sequence (P34998 24-415): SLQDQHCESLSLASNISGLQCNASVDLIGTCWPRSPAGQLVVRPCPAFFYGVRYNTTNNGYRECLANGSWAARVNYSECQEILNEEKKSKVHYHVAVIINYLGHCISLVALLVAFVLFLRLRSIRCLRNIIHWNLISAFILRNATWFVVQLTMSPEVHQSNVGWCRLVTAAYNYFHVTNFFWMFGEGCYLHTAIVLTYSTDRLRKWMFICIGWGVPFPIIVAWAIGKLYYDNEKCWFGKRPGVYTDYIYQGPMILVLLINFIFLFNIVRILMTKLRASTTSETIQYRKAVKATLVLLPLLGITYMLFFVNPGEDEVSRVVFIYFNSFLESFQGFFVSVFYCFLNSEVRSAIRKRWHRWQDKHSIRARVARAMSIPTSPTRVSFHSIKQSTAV
In short: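 cAMP accumulation was read by HTRF after 30 min at room temperature of compound treatment. Cells were cryopreserved CHO cells overexpressing CRF1R, plated at 2000/well in IBMX (2 mM)-containing HBSS/HEPES buffer with 0 or 0.1% HSA. Activity was normalized to 1000 nM UCN2 as 100%.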

human CRF2α receptor = target: T2, human CRF2α receptor (Homo sapiens, UniProt Q13324); assay: cAMP agonism at human CRF2 α receptor in TeloHEAC cells (Example 7); assay type: cell-based; conditions: cAMP HTRF, TeloHEAC cells stably expressing human CRF2 α
T2 construct: expressed in transfected cells; host or cells: TeloHEAC
T2 sequence (Q13324 1-411): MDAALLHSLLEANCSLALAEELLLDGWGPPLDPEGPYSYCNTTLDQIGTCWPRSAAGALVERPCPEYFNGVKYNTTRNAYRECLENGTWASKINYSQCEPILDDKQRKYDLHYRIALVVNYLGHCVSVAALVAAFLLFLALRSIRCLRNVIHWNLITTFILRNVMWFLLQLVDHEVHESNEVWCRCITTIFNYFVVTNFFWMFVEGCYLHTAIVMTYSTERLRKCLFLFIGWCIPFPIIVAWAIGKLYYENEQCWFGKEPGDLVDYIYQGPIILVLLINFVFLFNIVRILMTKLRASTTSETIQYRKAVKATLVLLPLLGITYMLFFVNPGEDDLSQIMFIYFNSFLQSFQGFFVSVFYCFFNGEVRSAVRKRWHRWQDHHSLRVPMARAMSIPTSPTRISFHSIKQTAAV
In short: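 Cryopreserved cells are thawed, washed and resuspended in IBMX-containing (2 mM) HEPES-buffered HBSS with or without 0.1% HSA. Compound incubation runs 30 min at room temperature with 2000 cells per well, then cAMP is measured by time-resolved FRET. Potency is expressed as EC50, efficacy relative to urocortin 2 at 1000 nM.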

[1] = Physical stability, dynamic light scattering assay (Example 15); assay type: physicochemical; conditions: for Apparent Rh [nm] 4 weeks / Scattering Intensity (I) [%] 4 weeks: 4 weeks at 40° C.
In short: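 DLS at 837 nm, 150° angle, +25° C; Rh, scattering intensity and mass contribution measured at 0 weeks and after 4 weeks at 40° C. Rh and D compared at 1, 5 and 10 mg/ml as kD surrogate; separate measurements at 300 μM, purity-corrected.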

[2] = CRF1R-overexpression CHO cell line
[3] = CRF1R-overexpression CHO cell line, read-out: Emax (%)
[4] = 0% HSA, read-out: EC50 [nM], 0% HSA
[5] = 0.1% HSA, read-out: EC50 [nM], 0.1% HSA
[6] = Buffer C (20 mM phosphate, pH 6.2)
[7] = Buffer A (100 mM acetate, pH 4.5)
[8] = Buffer D (20 mM phosphate, pH 7.4)

| Structure (SMILES) | EC50 (CRF1R receptor; [2]) | Emax (CRF1R receptor; [3]) | EC50 (human CRF2α receptor; [4]) | EC50 (human CRF2α receptor; [5]) | Emax (CRF1R receptor; CHO) | Apparent Rh [nm] 0 weeks [1, 6] | Scattering Intensity (I) [%] 0 weeks [1, 6] | Apparent Rh [nm] 4 weeks [1, 6] | Scattering Intensity (I) [%] 4 weeks [1, 6] | Apparent Rh [nm] 0 weeks [1, 7] | Scattering Intensity (I) [%] 0 weeks [1, 7] | Apparent Rh [nm] 4 weeks [1, 7] | Scattering Intensity (I) [%] 4 weeks [1, 7] | Apparent Rh [nm] 0 weeks [1, 8] | Scattering Intensity (I) [%] 0 weeks [1, 8] | Apparent Rh [nm] 4 weeks [1, 8] | Scattering Intensity (I) [%] 4 weeks [1, 8] |
| --- | --- | --- | --- | --- | --- | --- | --- | --- | --- | --- | --- | --- | --- | --- | --- | --- | --- |
| CC[C@H](C)[C@H](N)C(=O)N[C@H](C(=O)N[C@@H](CC(C)C)C(=O)N[C@@H](CO)C(=O)N[C@@H](CC(C)C)C(=O)N[C@@H](CC(=O)O)C(=O)N[C@H](C(=O)N1CCC[C@H]1C(=O)N[C@H](C(=O)N[C@@H](CCCCN)C(=O)N[C@@H](CC(C)C)C(=O)N[C@@H](CCCCNC(=O)COCCOCCNC(=O)COCCOCCNC(=O)CC[C@H](NC(=O)CCCCCCCCCCCCCCCCC(=O)O)C(=O)O)C(=O)N[C@@H](CCCCN)C(=O)N[C@H](C(=O)N[C@@H](CC(C)C)C(=O)N[C@@H](CC(C)C)C(=O)N[C@@H](CCC(=O)O)C(=O)N[C@@H](CCC(N)=O)C(=O)N[C@@H](CCC(=O)O)C(=O)N[C@@H](CCCCN)C(=O)N[C@@H](CCC(N)=O)C(=O)N[C@@H](CCCCN)C(=O)N[C@@H](CCCCN)C(=O)N[C@@H](CCC(N)=O)C(=O)N[C@@H](CCCNC(=N)N)C(=O)N[C@@H](CCC(=O)O)C(=O)N[C@@H](CCC(N)=O)C(=O)N[C@@H](C)C(=O)N[C@@H](CCC(=O)O)C(=O)N[C@H](C(=O)N[C@@H](CC(N)=O)C(=O)N[C@@H](CCCCN)C(=O)N[C@@H](CCC(N)=O)C(=O)N[C@H](C(=O)N[C@@H](CC(C)C)C(=O)N[C@@H](C)C(=O)N[C@@H](CCC(N)=O)C(=O)N[C@H](C(N)=O)C(C)C)[C@@H](C)CC)[C@@H](C)O)[C@@H](C)CC)[C@@H](C)CC)C(C)C)C(C)C [compound 35] (H-IVLSLDVPIKLK([AEEA-AEEA-γGlu-C18 diacid])KILLEQEKQKKQREQAETNKQILAQV-NH2; N-terminus assumed) | > 1000 nM | 1.77% | 0.24 nM | 3.82 nM |  |  |  |  |  |  |  |  |  |  |  |  |  |
| CC[C@H](C)[C@H](NC(=O)[C@H](CCC(N)=O)NC(=O)[C@H](CCC(=O)O)NC(=O)[C@H](CC(C)C)NC(=O)[C@H](CC(C)C)NC(=O)[C@H](CCC(N)=O)NC(=O)[C@H](CCCCN)NC(=O)[C@H](CC(N)=O)NC(=O)[C@H](CCCCN)NC(=O)[C@H](CCC(=O)O)NC(=O)[C@H](C)NC(=O)[C@H](CCC(N)=O)NC(=O)[C@H](CCC(N)=O)NC(=O)[C@H](CCCNC(=N)N)NC(=O)[C@H](CCC(=O)O)NC(=O)[C@H](CCCCN)NC(=O)[C@H](CCCCN)NC(=O)[C@H](CCC(N)=O)NC(=O)[C@H](CCCCN)NC(=O)[C@H](CCC(N)=O)NC(=O)[C@H](CCC(N)=O)NC(=O)[C@H](CCCCN)NC(=O)[C@H](CC(C)C)NC(=O)[C@H](CC(C)C)NC(=O)[C@@H](NC(=O)[C@H](CCC(N)=O)NC(=O)[C@H](CCCCNC(=O)COCCOCCNC(=O)COCCOCCNC(=O)CC[C@H](NC(=O)CCCCCCCCCCCCCCCCCCC(=O)O)C(=O)O)NC(=O)[C@@H](NC(=O)[C@H](CCCCN)NC(=O)[C@@H](NC(=O)[C@@H]1CCCN1C(=O)[C@@H](NC(=O)[C@H](CC(=O)O)NC(=O)[C@H](CC(C)C)NC(=O)[C@H](CO)NC(=O)[C@H](CC(C)C)NC(=O)[C@@H](NC(=O)[C@@H](N)Cc1ccccc1)[C@@H](C)O)C(C)C)[C@@H](C)O)[C@@H](C)CC)[C@@H](C)CC)C(N)=O [compound 59] (H-FTLSLDVPTKIK([AEEA-AEEA-γGlu-C20 diacid])QILLKQQKQKKERQQAEKNKQLLEQI-NH2) |  |  | 0.15 nM | 17.4 nM | 11.1% | 3.66 ± 0.05 nm | 100 ± 0% | 3.75 ± 0.08 nm | 100 ± 0% |  |  |  |  |  |  |  |  |
| CC[C@H](C)[C@H](N)C(=O)N[C@H](C(=O)N[C@@H](CC(C)C)C(=O)N[C@@H](CO)C(=O)N[C@@H](CC(C)C)C(=O)N[C@@H](CC(=O)O)C(=O)N[C@H](C(=O)N1CCC[C@H]1C(=O)N[C@H](C(=O)N[C@@H](CCCCN)C(=O)N[C@@H](CC(C)C)C(=O)N[C@@H](CCCCNC(=O)COCCOCCNC(=O)COCCOCCNC(=O)CC[C@H](NC(=O)CCCCCCCCCCCCCCCCC(=O)O)C(=O)O)C(=O)N[C@@H](CCCCN)C(=O)N[C@H](C(=O)N[C@@H](CC(C)C)C(=O)N[C@@H](CC(C)C)C(=O)N[C@@H](CCCCN)C(=O)N[C@@H](CCC(N)=O)C(=O)N[C@@H](CCC(=O)O)C(=O)N[C@@H](CCCNC(=N)N)C(=O)N[C@@H](CCC(N)=O)C(=O)N[C@@H](CCCCN)C(=O)N[C@@H](CCCCN)C(=O)NC(C)(C)C(=O)N[C@@H](CCCNC(=N)N)C(=O)N[C@@H](CCC(=O)O)C(=O)N[C@@H](CCC(N)=O)C(=O)N[C@@H](C)C(=O)N[C@@H](CCC(=O)O)C(=O)N[C@@H](CCCCN)C(=O)N[C@@H](CC(N)=O)C(=O)N[C@@H](CCCCN)C(=O)N[C@@H](CCC(N)=O)C(=O)N[C@H](C(=O)N[C@@H](CC(C)C)C(=O)N[C@@H](C)C(=O)N[C@@H](CCC(N)=O)C(=O)N[C@H](C(N)=O)C(C)C)[C@@H](C)CC)[C@@H](C)CC)[C@@H](C)CC)C(C)C)C(C)C [compound 99] (H-IVLSLDVPIKLK([AEEA-AEEA-γGlu-C18 diacid])KILLKQERQKK[Aib]REQAEKNKQILAQV-NH2) | > 1000 nM | 3.25% | 0.06 nM | 1.6 nM |  |  |  |  |  | 3.32 ± 0.18 nm | 100 ± 1% | 3.42 ± 0.04 nm | 99 ± 1% |  |  |  |  |
| CC[C@H](C)[C@H](N)C(=O)N[C@H](C(=O)N[C@@H](CC(C)C)C(=O)N[C@@H](CO)C(=O)N[C@@H](CC(C)C)C(=O)N[C@@H](CC(=O)O)C(=O)N[C@@H](C(=O)N1CCC[C@H]1C(=O)N[C@H](C(=O)N[C@@H](CCCCN)C(=O)N[C@@H](CC(C)C)C(=O)N[C@@H](CCCCNC(=O)COCCOCCNC(=O)COCCOCCNC(=O)CC[C@H](NC(=O)CCCCCCCCCCCCCCCCC(=O)O)C(=O)O)C(=O)N[C@@H](CCC(N)=O)C(=O)N[C@H](C(=O)N[C@@H](CC(C)C)C(=O)N[C@@H](CC(C)C)C(=O)N[C@@H](CCCCN)C(=O)N[C@@H](CCC(N)=O)C(=O)N[C@@H](CCC(=O)O)C(=O)N[C@@H](CCCNC(=N)N)C(=O)N[C@@H](CCC(N)=O)C(=O)N[C@@H](CCCCN)C(=O)NC(C)(C)C(=O)N[C@@H](CCC(N)=O)C(=O)N[C@@H](CCCNC(=N)N)C(=O)N[C@@H](CCC(N)=O)C(=O)N[C@@H](CCC(N)=O)C(=O)N[C@@H](C)C(=O)N[C@@H](CCC(=O)O)C(=O)N[C@@H](CCCCN)C(=O)N[C@@H](CC(N)=O)C(=O)N[C@@H](CCCCN)C(=O)N[C@@H](CCC(N)=O)C(=O)N[C@H](C(=O)N[C@@H](CC(C)C)C(=O)N[C@@H](C)C(=O)N[C@@H](CCC(N)=O)C(=O)N[C@H](C(N)=O)C(C)C)[C@@H](C)CC)[C@@H](C)CC)[C@@H](C)CC)C(C)C)C(C)C [compound 135] (H-IVLSLD[dV]PIKLK([AEEA-AEEA-γGlu-C18 diacid])QILLKQERQK[Aib]QRQQAEKNKQILAQV-NH2; N-terminus assumed) | > 1000 nM | 28.4% | 0.04 nM | 1.48 nM |  |  |  |  |  | 2.83 ± 0.12 nm | 99 ± 1% | 3.01 ± 0.03 nm | 99 ± 1% | 2.54 ± 0.16 nm | 100 ± 0% | 2.63 ± 0.15 nm | 100 ± 0% |

— patent US12679878B2, “CRF2 receptor agonists and their use in therapy” (SANOFI, priority 2020, dated 2026)
